Structures can show the parent of a compound that is named as a salt. Where two headings read alike, the source gives them in different places.
What was measured:
[1] = in vivo, cited from earlier work
[2] = test system: postoperative vomiting and nausea (PONV); assay: Prevention of PONV using a single intravenous dose of palonosetron (hysterectomy patients); type: in vivo, human; conditions: for patients who had received rescue therapy: by 24 hours; for Time to Failure (hr) (median): emesis or rescue medication, whichever first; for patients who experienced one or more emetic episodes: at 12 hours; for patients who had experienced an emetic episode: at 24 hours; for patients who experienced an emetic episode: two hours postrecovery; for Nausea Mean Score / No Nausea (patients) / Severe Nausea (patients): during 24 hours after recovery
Experimental: A study was conducted to test the efficacy and safety of five doses of intravenously administered palonosetron for the prophylaxis of postoperative vomiting and nausea. A total of 381 women, 24-80 years of age, scheduled for abdominal or vaginal hysterectomy and having ASA physical status rating of I or II were enrolled in this study. All patients received balanced general anesthesia, including N2O plus an opiate. Study medication, palonosetron, was administered over 30 seconds through a peripheral IV line at skin closure at the conclusion of the surgical procedure.

[3] = test system: postoperative vomiting and nausea (PONV); assay: Oral administration of palonosetron for prophylaxis of PONV (elective laparoscopic surgery patients); type: in vivo, human; conditions: for % no EE / % with CR: 4 hours after recovery; for % no EE / % with CR / % no EE (no emetic episodes) / % with CC (complete control) / % with CR (complete response): evaluable patients; for % no EE (no emetic episodes) / % with CC (complete control) / % with CR (complete response): 24 hours after recovery; for Nausea Mean Score / No Nausea (patients) / Severe Nausea (patients): during 24 hours after recovery; for patients free from emetic episodes: first 4 hours of recovery
Experimental: A study was performed to test the efficacy, safety, and pharmacokinetics of five doses of orally administered palonosetron for the prophylaxis of postoperative vomiting and nausea. Three hundred fifty-one patients, 308 women and 43 men, 19-75 years of age, scheduled for elective laparoscopic surgical procedures and having an ASA physical status rating of I and II were enrolled in this study. All patients received balanced general anesthesia, including […] plus an opiate. Doses of palonosetron were calculated based on thee patient's body weight at the screening visit, rounded to the nearest kilogram. Each dose was diluted to a total volume of 25 mL by adding sterile water to the dosing cup. The dosing cup was rinsed with 25 mL of sterile water and the patient also swallowed this 25 mL. Study medication was administered 2 hours prior to scheduled induction of anesthesia for surgeries requiring nasogastric suction and 1 hour prior to scheduled induction of anesthesia for all other laparoscopic surgical procedures.

[4] = Stability of palonosetron in solution; type: physicochemical; conditions: dependence on concentration
[5] = test system: PONV; conditions: Scuderi et al. (2002); cited from earlier work
[6] = 0.1 μg/kg IV, 24 hours after recovery, evaluable patients
[7] = 0.3 μg/kg IV, 4 hours after recovery
[8] = 0.3 μg/kg IV, 24 hours after recovery, evaluable patients
[9] = 1 μg/kg IV, 4 hours after recovery
[10] = 1.0 μg/kg IV, 24 hours after recovery, evaluable patients
[11] = 3.0 μg/kg IV, 24 hours after recovery, evaluable patients
[12] = 30 μg/kg IV, 4 hours after recovery
[13] = 30 μg/kg IV, 24 hours after recovery, evaluable patients

CN1C2CCCC1CC(NC(=O)c1nn(C)c3ccccc13)C2 (stereo not shown) [Kytril, granisetron hydrochloride]
plasma half-life [1]: 1.77 to 17.73 h

Cl.O=C1c2cccc3c2[C@H](CCC3)CN1[C@@H]1CN2CCC1CC2 [palonosetron, (3aS)-2,3,3a,4,5,6-Hexahydro-2-[(S)-1-Azabicyclo[2.2.2]oct-3-yl]2,3,3a,4,5,6-hexahydro-1-oxo-1Hbenz[de]isoquinoline]
Duration of Effect: Emetic Episode (25th Percentile) ([2]; 0.1 μg/kg IV): 2.2 h
Duration of Effect: Emetic Episode, second line of values (percentile not given) ([2]; 0.1 μg/kg IV): >24 h
Duration of Effect: Rescue (50th percentile) ([2]; 0.1 μg/kg IV): 8.5 h
% with CR ([2]; 0.1 μg/kg IV, 4 hours after recovery): 57%
% no EE [2, 6]: 55%
% with CC (complete control) [2, 6]: 34%
% with CR (complete response) [2, 6]: 34%
patients who had received rescue therapy ([2]; 0.1 μg/kg IV): 59.6%
Time to Failure (hr) (median) ([2]; 0.1 μg/kg IV): 6.0 h
Duration of Effect: Emetic Episode (25th Percentile) ([2]; 0.3 μg/kg IV): 8.4 h
Duration of Effect: Emetic Episode, second line of values (percentile not given) ([2]; 0.3 μg/kg IV): >24 h
Duration of Effect: Rescue (50th percentile) ([2]; 0.3 μg/kg IV): 9.9 h
% no EE [2, 7]: 90%
% with CR [2, 7]: 72%
% no EE [2, 8]: 60%
% with CC (complete control) [2, 8]: 33%
% with CR (complete response) [2, 8]: 34%
patients who experienced one or more emetic episodes ([2]; 0.3 μg/kg IV): 29.9%
patients who had experienced an emetic episode ([2]; 0.3 μg/kg IV): 40.3%
patients who had received rescue therapy ([2]; 0.3 μg/kg IV): 59.7%
Time to Failure (hr) (median) ([2]; 0.3 μg/kg IV): 9.6 h
patients who experienced an emetic episode ([2]; 0.3 μg/kg IV): 10.4%
Duration of Effect: Emetic Episode (25th Percentile) ([2]; 1 μg/kg IV): 21.8 h
Duration of Effect: Emetic Episode, second line of values (percentile not given) ([2]; 1 μg/kg IV): >24 h
Duration of Effect: Rescue (50th percentile) ([2]; 1 μg/kg IV): 21.3 h
% no EE [2, 9]: 92%
% with CR [2, 9]: 69%
% no EE [2, 10]: 73%
% with CC (complete control) [2, 10]: 44%
% with CR (complete response) [2, 10]: 44%
patients who experienced one or more emetic episodes ([2]; 1 μg/kg IV): 14.5%
patients who had experienced an emetic episode ([2]; 1 μg/kg IV): 27.4%
patients who had received rescue therapy ([2]; 1 μg/kg IV): 51.6%
Nausea Mean Score ([2]; 1 μg/kg IV): 0.82
No Nausea (patients) ([2]; 1 μg/kg IV): 36.1%
Severe Nausea (patients) ([2]; 1 μg/kg IV): 3.3%
Time to Failure (hr) (median) ([2]; 1.0 μg/kg IV): 19.5 h
patients who experienced an emetic episode ([2]; 1 μg/kg IV): 6.5%
nausea reported versus placebo ([2]; 1 μg/kg, 3 μg/kg, and 30 μg/kg IV, 24-hour period following recovery): statistically significantly less nausea
Duration of Effect: Emetic Episode (25th Percentile) ([2]; 3 μg/kg IV): 4.9 h
Duration of Effect: Emetic Episode, second line of values (percentile not given) ([2]; 3 μg/kg IV): >24 h
Duration of Effect: Rescue (50th percentile) ([2]; 3 μg/kg IV): 8.0 h
% with CR ([2]; 3 μg/kg IV, 4 hours after recovery): 66%
% no EE [2, 11]: 61%
% with CC (complete control) [2, 11]: 30%
% with CR (complete response) [2, 11]: 30%
Nausea Mean Score ([2]; 3 μg/kg IV): 0.92
No Nausea (patients) ([2]; 3 μg/kg IV): 34.8%
Severe Nausea (patients) ([2]; 3 μg/kg IV): 3.0%
Time to Failure (hr) (median) ([2]; 3.0 μg/kg IV): 7.3 h
Duration of Effect: Emetic Episode (25th Percentile) ([2]; 30 μg/kg IV): >24 h
Duration of Effect: Emetic Episode, second line of values (percentile not given) ([2]; 30 μg/kg IV): >24 h
Duration of Effect: Rescue (50th percentile) ([2]; 30 μg/kg IV): 23.2 h
% no EE [2, 12]: 94%
% with CR [2, 12]: 66%
% no EE [2, 13]: 76%
% with CC (complete control) [2, 13]: 45%
% with CR (complete response) [2, 13]: 45%
patients who experienced one or more emetic episodes ([2]; 30 μg/kg IV): 13.4%
patients who had experienced an emetic episode ([2]; 30 μg/kg IV): 23.9%
patients who had received rescue therapy ([2]; 30 μg/kg IV): 50.7%
Nausea Mean Score ([2]; 30 μg/kg IV): 0.66
No Nausea (patients) ([2]; 30 μg/kg IV): 47.8%
Time to Failure (hr) (median) ([2]; 30 μg/kg IV): 15.0 h
patients who experienced an emetic episode ([2]; 30 μg/kg IV): 4.5%
patients free from emetic episodes ([2]; 0.3-, 1-, and 30-μg/kg IV groups (range), first 4 hours of recovery): 90-94%
dose at which the clinical response substantially plateaus ([2]; administered intravenously or orally): about 1 microgram/kilogram of body weight
patients who received rescue medication ([2]; palonosetron-treated patients IV (range over dose groups), at 8 hours): 35.5-50.7%
patients who received rescue therapy ([2]; palonosetron-treated patients IV (range over dose groups), within the first 2 hours): 21-31%
% no EE ([3]; 0.1 μg/kg oral): 73%
% with CR ([3]; 0.1 μg/kg oral): 60%
nausea, position of treatment group relative to other groups ([3]; 0.3 μg/kg oral, 24-hour period following recovery): intermediate to the placebo group and the other palonosetron treatment groups
% no EE ([3]; 0.3 μg/kg oral): 72%
% with CR ([3]; 0.3 μg/kg oral): 61%
% no EE (no emetic episodes) ([3]; 0.3 μg/kg oral): 50%
% with CC (complete control) ([3]; 0.3 μg/kg oral): 37%
% with CR (complete response) ([3]; 0.3 μg/kg oral): 37%
Nausea Mean Score ([3]; 0.3 μg/kg oral): 0.83
No Nausea (patients) ([3]; 0.3 μg/kg oral): 44.8%
Severe Nausea (patients) ([3]; 0.3 μg/kg oral): 3.4%
% no EE ([3]; 1 μg/kg oral): 81%
% with CR ([3]; 1 μg/kg oral): 70%
% no EE (no emetic episodes) ([3]; 1 μg/kg oral): 67%
% with CC (complete control) ([3]; 1 μg/kg oral): 58%
% with CR (complete response) ([3]; 1 μg/kg oral): 58%
Nausea Mean Score ([3]; 1 μg/kg oral): 0.64
No Nausea (patients) ([3]; 1 μg/kg oral): 52.8%
Severe Nausea (patients) ([3]; 1 μg/kg oral): 3.8%
patients free from emetic episodes ([3]; 1.0 μg/kg oral): 72%
% no EE ([3]; 3 μg/kg oral): 82%
% with CR ([3]; 3 μg/kg oral): 76%
% no EE (no emetic episodes) ([3]; 3 μg/kg oral): 63%
% with CC (complete control) ([3]; 3 μg/kg oral): 52%
% with CR (complete response) ([3]; 3 μg/kg oral): 52%
Nausea Mean Score ([3]; 3 μg/kg oral): 0.65
No Nausea (patients) ([3]; 3 μg/kg oral): 55.8%
Severe Nausea (patients) ([3]; 3 μg/kg oral): 7.7%
patients free from emetic episodes ([3]; 3 μg/kg oral): 81%
% no EE (no emetic episodes) ([3]; 10 μg/kg oral): 71%
% with CC (complete control) ([3]; 10 μg/kg oral): 57%
% with CR (complete response) ([3]; 10 μg/kg oral): 59%
Nausea Mean Score ([3]; 10 μg/kg oral): 0.71
No Nausea (patients) ([3]; 10 μg/kg oral): 51.1%
Severe Nausea (patients) ([3]; 10 μg/kg oral): 2.2%
patients free from emetic episodes ([3]; 10 μg/kg oral): 82%
% no EE ([3]; 30 μg/kg oral): 69%
% with CR ([3]; 30 μg/kg oral): 63%
% no EE (no emetic episodes) ([3]; 30 μg/kg oral): 65%
% with CC (complete control) ([3]; 30 μg/kg oral): 51%
% with CR (complete response) ([3]; 30 μg/kg oral): 53%
Nausea Mean Score ([3]; 30 μg/kg oral): 0.79
No Nausea (patients) ([3]; 30 μg/kg oral): 44.8%
Severe Nausea (patients) ([3]; 30 μg/kg oral): 5.2%
nausea reported versus placebo ([3]; 1, 3, 10, and 30 μg/kg oral, 24-hour period following recovery): statistically significantly less nausea
dose at which clinical response reached a plateau ([3]; orally administered): 1 µg/kg
stability in solution [4]: stability of palonosetron increases in solution as its concentration decreases

Cc1nccn1CC1CCc2c(c3ccccc3n2C)C1=O (stereo not shown) [ondansetron]
patients requiring additional therapy after treatment [5]: 38-50%
serum half life [1]: ~5.5 h
serum half life ([1]; listed as Zofran): 5 to 6 h

O=C(O[C@@H]1C[C@@H]2C[C@H]3C[C@H](C1)N2CC3=O)c1c[nH]c2ccccc12 [dolasetron]
serum half life [1]: approximately 7.5 hours

Reference: patent publication US20060074101A1, “Method of treating post operative nausea and vomiting” (Helsinn Healthcare SA, priority 2003, published 2006)
